Test results taken from patent US9724537B2, “Abnormal electrical conduction blocking apparatus using photodynamic therapy (PDT)” (Keio University, priority 2006, dated 2017).
Values joined by “and” are separate entries in the source; they are usually repeats but may differ in a detail not shown here. Equal entries are not always repeated.

Tests used:
[1] = in vivo; settings: rat, half-life of photosensitizer concentration in the heart
Description: FIG. 46 is a graph showing changes in the photosensitizer concentration in the rat heart at doses of 5 and 2 mg/kg together with changes in plasma concentration in rats and humans.

[2] = human; intravenous injection 1 mg/kg; cited from earlier work
[3] = tested on: cultured cardiac muscle cells derived from an SD rat; test: Changes in intracellular Ca^2+ concentration during PDT (Fluo-4AM); format: cell-based
Description: Intracellular Ca^2+ concentration changes in cells on day 1 after seeding were measured with the four protocols described later. Cultured cardiac muscle cells derived from an SD rat were used. As a medium for cell culture, D-MEM/F12+10% FBS was used. Before subjected to the experiment, cardiac muscle cells in suspension at 1.6×10^5 cells/ml were seeded on a 24-well plate with a glass bottom at 0.5 ml/well (8.0×10^4 cells/well) and cultured in an incubator (37° C., 5% CO2) for one day.
Further, MEM+10% FBS containing 2.2 mM Ca^2+ was used as a normal medium, and SMEM+10% FBS containing 364 μM Ca^2+ was used as a Ca^2+-free medium.
Intracellular Ca^2+ concentrations were measured using Fluo-4AM (Molecular Probe). 55 μl of DMSO (Dojindo Laboratories, pure solvent for fluorescence analysis) was added to 50 μg of Fluo-4AM, 10 μl of this mixture was added to 1 ml of a medium for measurement (normal medium or Ca^2+-free medium) at 8 μM, and cardiac muscle cells were brought into loading for 30 min. Fluo4 was excited with Ar laser (wavelength, 488 nm), and a fluorescence image at 510 to 560 nm was obtained with a CCD camera (Nippon Roper Co., Ltd., Retiga 2000R). 10 photos were taken with an exposure time of 10 s, and then PDT was performed by irradiation with a semiconductor laser beam (peak wavelength, 670.8 nm; power, 150 mW/cm^2; continuous light; total energy density, 5 or 10 J/cm^2), and a total of 40 photos (for approx. 408 s) were continuously taken during and after PDT. The image analysis was performed using Image J, an image analysis software, and changes in intracellular cumulative fluorescence on each slide were calculated. Assuming the initial cumulative fluorescence F0 as 1, fluorescence changes were calculated by F/F0. Further, cells were incubated at temperature of 37° C. using a hot plate (Tokai Hit) during observation.
Protocol 1 (Extracellular Distribution of Talaporfin Sodium, Extracellular Normal Ca^2+ Concentration)
(§1) Fluo-4AM (normal medium solution) is loaded with each well at room temperature for 30 min, then talaporfin sodium (normal medium) adjusted beforehand to various concentrations is added at 0.5 ml/well, and observation is performed immediately after addition.
Protocol 2 (Intracellular Distribution of Talaporfin Sodium, Extracellular Normal Ca^2+ Concentration)
as §1, with “performed” for “performed immediately”, “the medium is replaced with a normal medium after 30 min of loading.” for “addition.”
Protocol 3 (Extracellular Distribution of Talaporfin Sodium, No Extracellular Ca^2+) […]

C=Cc1c(C)c2cc3nc(c(CC(=O)N[C@@H](CC(=O)O)C(=O)O)c4[nH]c(cc5nc(cc1[nH]2)C(C)=C5CC)c(C)c4C(=O)O)[C@@H](CCC(=O)O)[C@@H]3C [talaporfin sodium, mono-L-aspartyl chlorine 6]
half-life ([1]; 0 to 60 min): 1.08 h
half-life ([1]; later phase): 13.3 h
early average half-life in plasma [2]: 14.6 h
plasma concentration at 10 min [2]: 27000 ng/mL
cell morphology during and after PDT ([3]; FIG. 23): 1) swelling of the cell itself and 2) growth of “bobble” were observed and Cell morphology did not virtually change after PDT
change in intracellular Ca^2+ concentration during PDT ([3]; no extracellular Ca^2+, 30 μg/ml, 10 J/cm2): the intracellular Ca^2+ concentrations hardly changed
change in intracellular Ca^2+ concentration during PDT ([3]; normal extracellular Ca^2+ concentration): Rapid increases in the intracellular Ca^2+ concentrations were observed immediately after performing PDT
change in intracellular Ca^2+ concentration, photosensitizer outside vs inside the cell ([3]; normal extracellular Ca^2+, 0 min loading vs 30 min loading): rapid changes in the Ca^2+ concentration were confirmed when the photosensitizer exists only outside the cell
